From patent publication US5932709A (University of Michigan, priority 1997, dated 1999)
≈ marks a conversion by molar mass, not a printed value. Entries after “also recorded” stand apart in the source; their conditions may differ. Where a name gives a salt, the structure may show the parent alone.

Assays:
[1] = Water solubility in phosphate buffered saline (spectrophotometric assay); assay type: physicochemical; settings: aqueous buffer; water solubility; PBS pH 7.5, room temperature, 24 hr
Description: Approximately 5 mg of test compound was suspended in 1 mL of PBS in a 1.5 mL cryovial. The suspensions were mixed continuously on a Thermolyne vari-mix at room temperature for 24 hr. The suspensions were then centrifuged at 14000×g for 2 minutes to separate the undissolved materials. The supernatant fluids were diluted appropriately with PBS and the ultraviolet spectrums were recorded on a Beckman 640 DU spectrophotometer. For comparison, a standard stock (2 mg/mL in DMSO) solution was prepared for each analog. The ultraviolet spectrum of a 20 of 40 μg/mL standard working solution was measured. The water solubility of each analog was calculated based on the following formula:
Cunknown =Cstandard ×(Aunknown
where Cunknown is the concentration of the unknown solution to be determined; Cstandard is the concentration of the standard working solution (either 20 or 40 μg/mL); Astandard is the absorbance at 350 nm of the standard working solution; DDilution is the appropriate dilution factor used so that the absorbance of the unknown working solution is within the dynamic range of the UV spectrophotometer (less than 2 absorbance units).

[2] = molecular target: T1, human placental topoisomerase I (Homo sapiens, UniProt P11387); assay: Inhibition of topoisomerase I catalytic activity (relaxation of supercoiled SV40 DNA); assay type: biochemical; settings: highest concentration tested (100 μg/mL), in words
T1 construct: purchased TopoGen; host or cells: human placenta
T1 sequence (P11387 1-765): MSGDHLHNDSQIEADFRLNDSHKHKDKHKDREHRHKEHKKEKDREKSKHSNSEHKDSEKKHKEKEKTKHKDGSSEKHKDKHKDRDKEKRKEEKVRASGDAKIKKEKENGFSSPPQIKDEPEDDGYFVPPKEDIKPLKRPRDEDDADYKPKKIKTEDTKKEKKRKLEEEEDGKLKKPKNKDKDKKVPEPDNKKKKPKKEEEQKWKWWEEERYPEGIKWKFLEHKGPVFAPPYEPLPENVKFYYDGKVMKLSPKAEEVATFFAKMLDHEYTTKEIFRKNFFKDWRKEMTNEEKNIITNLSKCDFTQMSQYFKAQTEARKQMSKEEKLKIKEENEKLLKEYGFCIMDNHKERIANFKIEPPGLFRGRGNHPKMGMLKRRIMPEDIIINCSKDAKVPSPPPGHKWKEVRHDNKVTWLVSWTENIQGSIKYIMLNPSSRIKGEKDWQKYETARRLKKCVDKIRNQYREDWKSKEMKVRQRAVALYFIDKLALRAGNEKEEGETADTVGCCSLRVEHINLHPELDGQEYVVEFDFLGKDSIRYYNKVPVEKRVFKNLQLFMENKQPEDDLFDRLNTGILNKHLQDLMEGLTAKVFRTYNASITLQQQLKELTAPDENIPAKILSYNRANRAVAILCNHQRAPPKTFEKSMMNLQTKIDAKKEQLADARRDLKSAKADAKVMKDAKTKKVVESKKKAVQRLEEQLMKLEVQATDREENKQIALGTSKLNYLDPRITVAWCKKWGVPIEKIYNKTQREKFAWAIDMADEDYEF
Description: The topoisomerase I catalytic activity was measured by converting the supercoiled SV40 DNA (Form I) to the relaxed form (Form Io). All reactions were performed in 20 μL reaction buffer (Tris-HCl, 10 mM, pH 7.5; EDTA, 1 mM; NaCl, 100 mM) with 0.25 μg SV40 DNA, 0.5 unit of human placental topoisomerase I (TopoGen) and graded concentrations of the analog tested. The reaction mixtures were incubated at 37° C. for 30 minutes. […] Ten μL of the reaction mixture was loaded onto a 1% agarose gel prepared in TAE buffer containing 2 μg/mL chloroquine; and the electrophoresis was performed at 82 volt for 4.5 hr in the TAE buffer containing 2 μg/mL chloroquine. […] The gels were then stained with 0.5 μg/mL ethidium bromide solution for 30 min or longer (if chloroquine is present during the electrophoresis step), and destained with 5 changes of deionized water. […] The DNA bands (image) on the negative were densitometrically scanned with a Molecular Dynamic Personal Densitometer. The percent inhibition of Toposiomerase I activity is calculated based on the following equation:
% Inhibition=(FSC(E+D) -FSC(E))/(FSC(C)
where FSC(E+D) represents fraction of supercoiled DNA in the presence of enzyme and drug; FSC(E) represents fraction of supercoiled DNA in the presence of enzyme alone; FSC(C) represents fraction of supercoiled DNA in the untreated SV40 DNA; the IC50 value was estimated using the same four-parameter logistic equation described in the in vitro growth inhibition studies.

tumor cells = assay: MTT growth inhibition across tumor cell lines (P388, P388/CPT, B16, HT-29, MCF-7M); assay type: cell-based; settings: vs camptothecin
Description: (§1) [See "Rapid Colorimetric Assay For Cellular Growth And Survival: Application To Proliferation And Cytotoxicity Assays," J. Immun. Meth. 65:55 (1983)]. The assay utilizes a tetrazolium salt to quantitatively measure mammalian cell survival and proliferation by colorimetric methods. In particular, MTT, a pale yellow compound with minimal absorbance, is incubated with cancerous cells in addition to (or in the absence of) a particular camptothecin analog. Living cells with active mitochondrial enzymes metabolize the MTT into a dark blue/purple formazan product with high absorbance. The exact procedure used to test the camptothecin analogs of the present invention is described below.
Exponentially growing cells (1-2×10^3 cells, unless specified otherwise) in 0.1 mL medium were seeded on day 0 in a 96-well microtiter plate. On day 1, 0.1 mL aliquots of medium containing graded concentrations of test analogs were added to the cell plates. After incubation at 37° C. in a humidified incubator for 3 days (P388, P388/CPT, B16) or 6 days (HT-29, MCF-7M), the plates were centrifuged briefly and 100 μL of the growth medium was removed. Cell cultures were incubated with 50 μL of 3-(4,5-dimethylthiazol-2-yl)-2,5-diphenyl-tetrazolium bromide [MTT, 1 mg/mL in Dulbecco's phosphate buffered saline (PBS)] for 4 hr at 37° C. The resulting purple formazan precipitate was solubilized with 200 μL of 0.04 N HCl in isopropyl alcohol. Absorbance was monitored in a BioRad Model 3550 Microplate Reader at a test wavelength of 570 nm and a reference wavelength of 630 nm. The absorbance is transferred to a PC 486 computer. The IC50 values were determined by a computer program (EZ-ED50) that fits all of the data to the following four-parameter logistic equation: […]

[3] = test system: MCF-7 human breast tumor cells; assay: MTT growth inhibition, MCF-7; assay type: cell-based; settings: MCF7, 144 h, MCF-7, MTT, 6 days, read-out: Growth Inhibitory Activity IC50
Description: (§2) Camptothecin was used as a control to test the anti-cancer efficacy of the novel camptothecin analogs of the present invention.
(§3) Murine B16 melanoma cell line was grown in RPMI 1640 medium supplemented with 10% heat-inactivated fetal bovine serum, 2 mM L-glutamine, 50 units/mL penicillin, 50 μg/mL streptomycin, 25 μg/mL gentamicin, 0.75% sodium bicarbonate 10 mM HEPES buffer (pH 7.4), and 0.06 mg/mL AntiPPLO. Murine P388 leukemic cell line and human HT-29 colon adenocarcinoma line were maintained in RPMI 1640 medium supplemented with 10% heat-inactivated fetal bovine serum. […] MCF-7M human breast adenocarcinoma was maintained in IMEM supplemented with 5% non heat-inactivated fetal bovine serum and 1 nM insulin.
as §1
(§4) Exponentially growing cells (1-2×10^3 cells, unless specified otherwise) in 0.1 mL medium were seeded on day 0 in a 96-well microtiter plate. On day 1, 0.1 mL aliquots of medium containing graded concentrations of test analogs were added to the cell plates. After incubation at 37° C. in a humidified incubator for 3 days (P388, P388/CPT, B16) or 6 days (HT-29, MCF-7M), the plates were centrifuged briefly and 100 μL of the growth medium was removed. Cell cultures were incubated with 50 μL of 3-(4,5-dimethylthiazol-2-yl)-2,5-diphenyl-tetrazolium bromide [MTT, 1 mg/mL in Dulbecco's phosphate buffered saline (PBS)] for 4 hr at 37° C. The resulting purple formazan precipitate was solubilized with 200 μL of 0.04 N HCl in isopropyl alcohol. Absorbance was monitored in a BioRad Model 3550 Microplate Reader at a test wavelength of 570 nm and a reference wavelength of 630 nm. The absorbance is transferred to a PC 486 computer. The IC50 values were determined by a computer program (EZ-ED50) that fits all of the data to the following four-parameter logistic equation:
(§5) Y=(Amax -Amin)/(1+[X/IC^50 ])^n +Amin
(§6) where Amax is the absorbance of control cells, Amin is the absorbance of cells in the presence of highest agent concentration, IC^50 is the concentration of agent that inhibits the cell growth by 50% of control cells (based on the absorbance) and n is the slope of the curve.

tumor growth = settings: in words; cited from earlier work
[4] = test system: P388 murine leukemia cells; assay: MTT growth inhibition, P388; assay type: cell-based; settings: Mus musculus, 72 h, 3 days, read-out: Growth Inhibitory Activity IC50
Description: as §2, §3, §1, §4, §5, §6

[5] = test system: HT-29 human colon adenocarcinoma cells; assay: MTT growth inhibition, HT-29; assay type: cell-based; settings: 144 h, HT-29, MTT, 6 days, read-out: Growth Inhibitory Activity IC50
Description: as §2, §3, §1, §4, §5, §6

[6] = test system: B16 murine melanoma cells; assay: MTT growth inhibition, B16; assay type: cell-based; settings: Mus musculus, 72 h, 3 days, read-out: Growth Inhibitory Activity IC50
Description: as §2, §3, §1, §4, §5, §6

[7] = test system: P388/CPT CPT-resistant murine leukemia cells; assay: MTT growth inhibition, P388/CPT; assay type: cell-based; settings: Mus musculus, 72 h, 3 days, read-out: Growth Inhibitory Activity IC50
Description: as §2, §3, §1, §4, §5, §6

[8] = cited from earlier work
[9] = as hydrochloride trihydrate; cited from earlier work
topoisomerase I = settings: in words; hydrochloride; cited from earlier work
carcinoma cells = settings: in words; hydrochloride; cited from earlier work

## CCCCCC(=O)O[C@]1(CC)C(=O)OCc2c1cc1n(c2=O)Cc2cc3ccccc3nc2-1 [HAR2, camptothecin 20-n-hexanoate]
[1]
  solubility at 24 h: 2.9 µg/mL (≈ 6.49 µM)
[2]
  topoisomerase I inhibition: Neither the acetate (HAR3) nor the hexanoate (HAR2) inhibited the topoisomerase I activity
Tumor cells
  reduction of growth inhibitory activity: ~100 fold

## CC[C@@]1(O)C(=O)OCc2c1cc1n(c2=O)Cc2cc3ccccc3nc2-1 [camptothecin, reference compound]
[3]
  IC50: 0.001 µg/mL (≈ 0.00287 µM)
Tumor growth
  effectiveness against tumor growth in animal studies: significant efficacy in animal tumor models
[4]
  IC50: 0.01 µg/mL (≈ 0.0287 µM)
[5]
  IC50: 0.002 µg/mL (≈ 0.00574 µM)
[1]
  solubility at 24 h: 20 µg/mL (≈ 57.4 µM)
[6]
  IC50: 0.015 µg/mL (≈ 0.0431 µM)
[7]
  IC50: 1.12 µg/mL (≈ 3.22 µM)
[8]; human, in vivo
  side effects in human clinical studies: vomiting and diarrhea to myelosuppression and hemorrhagic cystitis

## CCc1c2c(nc3ccc(OC(=O)N4CCC(N5CCCCC5)CC4)cc13)-c1cc3c(c(=O)n1C2)COC(=O)[C@]3(O)CC [CPT-11, 7-ethyl-10-[4-(piperidino)-1-piperidino]carboxylcamptothecin hydrochloride]
Tumor growth
  effectiveness against tumor growth in animal studies: significant in vivo preclinical activity
[9]
  water solubility: 32000 µg/mL
Topoisomerase I
  inhibition of Topoisomerase I activity: inability to inhibit Topoisomerase I activity; also recorded: lack of topoisomerase I inhibitory activity
Carcinoma cells
  in vitro efficacy / activity: negligible in vitro activity

## CC[C@@](O)(C(=O)O)c1cc2n(c(=O)c1CO)Cc1cc3ccccc3nc1-2 [sodium salt of camptothecin]
[8]; sodium salt vs unmodified camptothecin, clinical trials
  anti-cancer efficacy: much less than unmodified camptothecin

## CC[C@@]1(OC(C)=O)C(=O)OCc2c1cc1n(c2=O)Cc2cc3ccccc3nc2-1 [HAR3]
[1]
  solubility at 24 h: 6.5 µg/mL (≈ 16.6 µM)
[2]
  topoisomerase I inhibition: Neither the acetate (HAR3) nor the hexanoate (HAR2) inhibited the topoisomerase I activity
Tumor cells
  reduction of growth inhibitory activity: approximately 10 fold
